Results published in patent US20100267561A1, “HERBICIDAL PYRIDAZINONE DERIVATIVES” (priority 2007, published 2010).
Read-outs that look alike come from different tables or passages of the source.

Columns and labels:
Type in all cases: in vivo
corn (Zea mays) = assay: Test A pre-/postemergence plant response; conditions: Zea mays, 240 h; for Corn plant response rating (crop injury, 0 = no effect, 100 = complete kill) at 31 g/ha: 31 g ai/ha; for Corn plant response rating (crop injury, 0 = no effect, 100 = complete kill) at 125 g/ha: 125 g ai/ha
Procedure, shortened: (§1)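 Seeds sown in loam–sand blend; test chemicals in non-phytotoxic solvent with surfactant applied preemergence as directed soil spray and, concurrently, postemergence to plants 2–10 cm tall at one- to two-leaf stage. Greenhouse ~10 days, then visual injury rating vs untreated controls on 0–100 scale (0 = no effect, 100 = complete control).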

[1] = test system: large crabgrass (Digitaria sanguinalis); assay: Test A pre-/postemergence plant response; conditions: Digitaria sanguinalis, 240 h, read-out: Plant response rating, Crabgrass, Large; for pest or weed control at 31 g/ha: 31 g ai/ha; for pest or weed control at 125 g/ha: 125 g ai/ha
Procedure, shortened: as §1

[2] = test system: wheat (Triticum aestivum); assay: Test A pre-/postemergence plant response; conditions: Triticum aestivum, 240 h, read-out: Plant response rating, Wheat; for plant injury at 31 g/ha: 31 g ai/ha; for plant injury at 125 g/ha: 125 g ai/ha
Procedure, shortened: as §1

[3] = test system: barnyardgrass (Echinochloa crus-galli); assay: Test A pre-/postemergence plant response; conditions: Echinochloa crus-galli, 240 h, read-out: Plant response rating, Barnyardgrass; for pest or weed control at 31 g/ha: 31 g ai/ha; for pest or weed control at 125 g/ha: 125 g ai/ha
Procedure, shortened: as §1

[4] = test system: pigweed (Amaranthus retroflexus); assay: Test A pre-/postemergence plant response; conditions: Amaranthus retroflexus, 240 h, read-out: Plant response rating, Pigweed; for pest or weed control at 31 g/ha: 31 g ai/ha; for pest or weed control at 125 g/ha: 125 g ai/ha
Procedure, shortened: as §1

[5] = test system: giant foxtail (Setaria faberi); assay: Test A pre-/postemergence plant response; conditions: Setaria faberi, 240 h, read-out: Plant response rating, Foxtail, Giant; for pest or weed control at 31 g/ha: 31 g ai/ha; for pest or weed control at 125 g/ha: 125 g ai/ha
Procedure, shortened: as §1

[6] = test system: catchweed bedstraw (Galium aparine); assay: Test B pre-/postemergence plant response; conditions: Preemergence; for pest or weed control at 31 g/ha / pest or weed control at 62 g/ha: Galium aparine, pre-emergence, read-out: Plant response rating, Galium; for pest or weed control at 31 g/ha: 31 g ai/ha; for pest or weed control at 62 g/ha: 62 g ai/ha, 0 to 100 scale, 0 no effect, 100 complete control
Source text: (§2) Seeds of plant species selected from blackgrass (Alopecurus myosuroides), downy bromegrass (Bromus tectorum), green foxtail (Setaria viridis), Italian ryegrass (Lolium multiflorum), wheat (Triticum aestivum), wild oat (Avena fatua), catchweed bedstraw (Galium aparine), bermudagrass (Cynodon dactylon), surinam grass (Brachiaria decumbens), cocklebur (Xanthium strumarium), corn (Zea mays), large crabgrass (Digitaria sanguinalis), woolly cupgrass (Eriochloa villosa), giant foxtail (Setaria faberii), goosegrass (Eleusine indica), johnsongrass (Sorghum halepense), kochia (Kochia scoparia), lambsquarters (Chenopodium album), morningglory (Ipomoea coccinea), eastern black (E.B.) nightshade (Solanum ptycanthum), yellow nutsedge (Cyperus esculentus), pigweed (Amaranthus retroflexus), common ragweed (Ambrosia elation), Russian thistle (Salsola iberica), soybean (Glycine max), common (oilseed) sunflower (Helianthus annuus), and velvetleaf (Abutilon theophrasti) were planted and treated preemergence with test chemicals formulated in a non-phytotoxic solvent mixture which included a surfactant.
(§3) At the same time, plants selected from these crop and weed species and also winter barley (Hordeum vulgare), canarygrass (Phalaris minor), chickweed (Stellaria media) and windgrass (Apera spica-venti) were treated with postemergence applications of some of the test chemicals formulated in the same manner. Plants ranged in height from 2 to 18 cm (1- to 4-leaf stage) for postemergence treatments.
(§4) Plant species in the flooded paddy test consisted of rice (Oryza sativa), umbrella sedge (Cyperus difformis), ducksalad (Heteranthera limosa) and barnyardgrass (Echinochloa crus-galli) grown to the 2-leaf stage for testing. At time of treatment, test pots were flooded to 3 cm above the soil surface, treated by application of test compounds directly to the paddy water, and then maintained at that water depth for the duration of the test. Treated plants and controls were maintained in a greenhouse for 13 to 15 days, after which time all species were compared to controls and visually evaluated. Plant response ratings, summarized in Table B, are based on a scale of 0 to 100 where 0 is no effect and 100 is complete control. A dash (-) response means no test result.

[7] = test system: yellow nutsedge (Cyperus esculentus); assay: Test B pre-/postemergence plant response; conditions: for pest or weed control at 31 g/ha / pest or weed control at 62 g/ha: Cyperus, read-out: Plant response rating, Nutsedge, Yellow; for pest or weed control at 31 g/ha: 31 g ai/ha; for pest or weed control at 62 g/ha: 62 g ai/ha, 100 complete control
Source text: as §2, §3, §4

[8] = test system: blackgrass (Alopecurus myosuroides); assay: Test B pre-/postemergence plant response; conditions: for pest or weed control at 16 g/ha / pest or weed control at 31 g/ha / pest or weed control at 62 g/ha: Alopecurus myosuroides, read-out: Plant response rating, Blackgrass; for pest or weed control at 31 g/ha: 31 g ai/ha; for pest or weed control at 62 g/ha: 62 g ai/ha, 100 complete control
Source text: as §2, §3, §4

[9] = post-emergence, Postemergence, 0 to 100 scale (0 no effect, 100 complete control)
[10] = post-emergence, Postemergence, 0 to 100 scale, 0 no effect, 100 complete control
[11] = pre-emergence, Preemergence, 0 to 100 scale, 0 is no effect, 100 is complete control
[12] = pre-emergence, Preemergence, 0 to 100 scale (0 no effect, 100 complete control)
[13] = scale 0 to 100 (0 no effect, 100 complete control)
[14] = 8 g ai/ha, postemergence, 0-100 scale
[15] = 16 g ai/ha, postemergence, 0-100 scale
[16] = post-emergence, Postemergence, scale 0 to 100
[17] = post-emergence, Postemergence, scale 0 to 100, 0 no effect
[18] = pre-emergence, Preemergence, scale 0 to 100 (0 no effect, 100 complete control)
[19] = pre-emergence, Preemergence, 0 to 100 scale, 0 no effect
[20] = Preemergence, 8 g ai/ha, scale 0 to 100 (0 no effect, 100 complete control)
[21] = Preemergence, 16 g ai/ha, scale 0 to 100
[22] = post-emergence, Postemergence, 16 g ai/ha, scale 0 to 100
[23] = Preemergence, 8 g ai/ha, scale 0 to 100

Cc1cc(-c2ccc(Br)cc2)nn1-c1c(O)cn[nH]c1=O [Compound 78, 4-[3-(4-bromophenyl)-5-methyl-1H-pyrazol-1-yl]-5-hydroxy-3(2H)-pyridazinone]
10%: pest or weed control at 31 g/ha [1, 11]
0%: Corn plant response rating (crop injury, 0 = no effect, 100 = complete kill) at 31 g/ha (corn (Zea mays); [11]) | plant injury at 31 g/ha [2, 11] | pest or weed control at 31 g/ha [3, 11] | pest or weed control at 31 g/ha [4, 9] | pest or weed control at 125 g/ha [4, 10] | pest or weed control at 31 g/ha [4, 11] | pest or weed control at 125 g/ha [4, 12] | pest or weed control at 31 g/ha [6, 13] | pest or weed control at 62 g/ha [6] | pest or weed control at 31 g/ha [7, 16] | pest or weed control at 62 g/ha [7, 17] | pest or weed control at 31 g/ha [7, 18] | pest or weed control at 62 g/ha [7, 19]
100%: Corn plant response rating (crop injury, 0 = no effect, 100 = complete kill) at 125 g/ha (corn (Zea mays); [10]) | pest or weed control at 125 g/ha [1, 10] | pest or weed control at 125 g/ha [1, 12] | pest or weed control at 125 g/ha [3, 10] | pest or weed control at 125 g/ha [3, 12] | pest or weed control at 125 g/ha [5, 10] | pest or weed control at 125 g/ha [5, 12] | pest or weed control at 31 g/ha [8, 16] | pest or weed control at 62 g/ha [8, 17] | pest or weed control at 31 g/ha [8, 18] | pest or weed control at 62 g/ha [8, 19]
90%: Corn plant response rating (crop injury, 0 = no effect, 100 = complete kill) at 125 g/ha (corn (Zea mays); [12]) | plant injury at 125 g/ha [2, 10] | plant injury at 125 g/ha [2, 12] | pest or weed control at 31 g/ha [3, 9]
70%: plant injury at 31 g/ha [2, 9]
95%: pest or weed control at 16 g/ha [8, 22]
90: Blackgrass plant response rating [8, 21]
70: Blackgrass plant response rating [8, 14] | Blackgrass plant response rating [8, 20]
20%: pest or weed control at 31 g/ha [5, 11]
60%: Corn plant response rating (crop injury, 0 = no effect, 100 = complete kill) at 31 g/ha (corn (Zea mays); [9])
0: Galium plant response rating ([6]; 8 g ai/ha, scale 0 to 100 (0 no effect, 100 complete control)) | Galium plant response rating ([6]; 16 g ai/ha, scale 0 to 100) | Nutsedge, Yellow plant response rating [7, 14] | Nutsedge, Yellow plant response rating [7, 15] | Nutsedge, Yellow plant response rating [7, 20] | Nutsedge, Yellow plant response rating [7, 21]
80%: pest or weed control at 31 g/ha [1, 9] | pest or weed control at 31 g/ha [5, 9]

Cc1nn(C)c(=O)c(-n2nc(-c3ccc(C(F)(F)F)cc3)cc2C)c1O [Compound 75, 5-hydroxy-2,6-dimethyl-4-[5-methyl-3-[4-(trifluoromethyl)phenyl]-1H-pyrazol-1-yl]-3(2H)-pyridazinone]
50%: pest or weed control at 31 g/ha [5, 9] | pest or weed control at 16 g/ha [8, 22]
10%: plant injury at 31 g/ha [2, 9] | pest or weed control at 31 g/ha [3, 9]
40%: pest or weed control at 125 g/ha [1, 12]
70%: plant injury at 125 g/ha [2, 10]
65%: pest or weed control at 31 g/ha [8, 16]
10: Blackgrass plant response rating [8, 14]
60%: pest or weed control at 31 g/ha [8, 18]
20: Blackgrass plant response rating [8, 21]
0: Galium plant response rating ([6]; 8 g ai/ha, scale 0 to 100) | Galium plant response rating ([6]; 16 g ai/ha, scale 0 to 100) | Nutsedge, Yellow plant response rating [7, 14] | Nutsedge, Yellow plant response rating [7, 15] | Nutsedge, Yellow plant response rating [7, 23] | Nutsedge, Yellow plant response rating [7, 21] | Blackgrass plant response rating [8, 23]
20%: pest or weed control at 31 g/ha [1, 9] | plant injury at 125 g/ha [2, 12] | pest or weed control at 31 g/ha [5, 11]
90%: Corn plant response rating (crop injury, 0 = no effect, 100 = complete kill) at 125 g/ha (corn (Zea mays); [10]) | pest or weed control at 125 g/ha [3, 10] | pest or weed control at 62 g/ha [8, 19]
95%: pest or weed control at 62 g/ha [8, 17]
0%: Corn plant response rating (crop injury, 0 = no effect, 100 = complete kill) at 31 g/ha (corn (Zea mays); [9]) | Corn plant response rating (crop injury, 0 = no effect, 100 = complete kill) at 31 g/ha (corn (Zea mays); [11]) | Corn plant response rating (crop injury, 0 = no effect, 100 = complete kill) at 125 g/ha (corn (Zea mays); [12]) | pest or weed control at 31 g/ha [1, 11] | plant injury at 31 g/ha [2, 11] | pest or weed control at 31 g/ha [3, 11] | pest or weed control at 31 g/ha [4, 9] | pest or weed control at 125 g/ha [4, 10] | pest or weed control at 31 g/ha [4, 11] | pest or weed control at 125 g/ha [4, 12] | pest or weed control at 31 g/ha [6, 13] | pest or weed control at 62 g/ha [6] | pest or weed control at 31 g/ha [7, 16] | pest or weed control at 62 g/ha [7, 17] | pest or weed control at 31 g/ha [7, 18] | pest or weed control at 62 g/ha [7, 19]
80%: pest or weed control at 125 g/ha [1, 10] | pest or weed control at 125 g/ha [3, 12] | pest or weed control at 125 g/ha [5, 10] | pest or weed control at 125 g/ha [5, 12]
